The record followed here is patent publication US20220275329A1, “COMPOSITIONS AND METHODS FOR MATURING STEM CELL-DERIVED BETA CELLS” (President and Fellows of Harvard College, priority 2019, published 2022).

Assay [1] has as its system mTORC1. Description: p-S6 staining of SC-beta cells (mTORC1 activity). It is filed as cell-based, human. The protocol: (§1) The hPSC line HUES8 (NIH human embryonic stem cell registry #0021) was used for all experiments. Undifferentiated HUES8 cells were maintained in supplemented mTeSR1 medium (StemCell Technologies) in 500 ml spinner flasks (Coming) set at a 70 rpm rotation rate in a 37° C. 5% CO2 incubator. Directed differentiation into SC-β cells was conducted as described previously with minor modifications. Briefly, 150 million cells were seeded in 300 ml mTeSR1 +10 μM ROCK Inhibitor Y27632, fed with mTeSR1 48 h later, and 72 h later stepwise differentiation stages were induced by the following treatments: DE stage: 24 h in S1 medium +100 ng/ml ActivinA +[…] CHIR99021, followed by 48 h in the same medium without CHIR99021. PGT stage: 72 h in S2 medium +50 ng/ml KGF. PP1 stage: 24 h in S3 medium +50 ng/ml KGF +0.25 μM Sant1 +2 μM Retinoic acid (RA) +500 nM PDBU +10 μM Y27632 +200 nM LDN193189, followed by 24 h in the same medium without LDN193189. […]
Cells were then resuspended in perm/wash with primary antibodies and incubated at 4° C. overnight. […] Cells were then washed 3 times in perm/wash solution and finally resuspended in 500-700 μl, filtered through a 40 μm nylon mash into flow cytometry tubes (BD Falcon; 352235), and analyzed using the LSR-II flow cytometer (BD Biosciences) with at least 30,000 events recorded. […]

In assay [2] the test system is mTORC1. Description: p-S6 FACS staining of beta cells in isolated human islets (mTORC1 activation). It is filed as cell-based. The conditions noted are these: for effect on mTORC1 activity (p-S6) in mature beta cells: human islets, 30 minute incubation in RPMI. An excerpt: Insulin-expressing beta cells appear around embryonic day 13.5 (E13.5) in mice and week 8 and 9 post-conception in humans (Pan and Wright, 2011; Slack, 1995), but glucose-stimulated insulin secretion (GSIS) has been observed only days after birth (Blum et al., 2012). Since a major change from embryonic to postnatal physiology is nutrient consumption, it was predicted that nutrients and nutrient sensing by mTORC1 could have a role in the transition from immature to mature insulin secretion by beta cells. To explore that, the nutrient sensitivity and dynamics of mTORC1 in isolated mature human and mouse islets was first examined.
(§2) Differentiated cell clusters or islets were dispersed into single-cell suspension by incubation in TrypLE Express (Invitrogen) at 37° C. until clusters dissociated to single cells upon mixing by pipetting gently up and down (typically 10-15 min). Cells were spun down for 3 min at 1000 rpm, washed once in PBS (1 mL) and transferred to a 1.7 ml microcentrifuge tube (Bioscience; 11510). Cells were resuspended in perm/fix solution and incubated for 10 min (BD 554714). Cells were then washed once in perm/wash for 15 min (BD 554714).
Cells were then resuspended in perm/wash with primary antibodies and incubated at 4° C. overnight. Primary antibodies, diluted 1:300 unless otherwise noted: Mouse anti-Nkx6.1, rat anti-insulin (pro-)IC-peptide, mouse anti-glucagon, rabbit anti-phospho-S6 Ribosomal Protein (Ser240/244). Cells were washed twice in blocking buffer and then incubated in perm/wash buffer with secondary antibodies for 2 hr (protected from light). Secondary antibodies conjugated to Alexa Fluor 405, 488 or 647 (Life Technologies) were used to visualize primary antibodies. Cells were then washed 3 times in perm/wash solution and finally resuspended in 500-700 μl, filtered through a 40 μm nylon mash into flow cytometry tubes (BD Falcon; 352235), and analyzed using the LSR-II flow cytometer (BD Biosciences) with at least 30,000 events recorded. Analysis of the results was performed using FlowJo software. […]

Another assay concerns SC-beta cells. Description: Glucose stimulated insulin secretion (GSIS) assay of SC-beta cells. The class given is cell-based, human. The protocol: as §1, with “LDN193189. PP2 stage: 6 days in S3 medium +50 ng/ml KGF +0.25 uM Sant1 +0.1 μM Retinoic acid (RA) +10 μM Y27632 +5 ng/ml ActivinA.” for “LDN193189.”
Islets were isolated from whole pancreata using Collagenase P (Roche) injected to the pancreatic duct followed by Histopaque gradient (Sigma). […] Insulin levels were measured by ELISA (Alpco). […] Normalization was done to β-cell number in each sample (pooled from 4 or more mice) scored by FACS following staining for insulin.

Assay [3] deals with mTORC1. Description: p-S6 immunostaining of kidney capsule transplants of SC-beta cells in mice injected with nutrients. It is filed as in vivo. The conditions noted are these: two months after transplantation, fasted recipient mouse, injection. The protocol:
Having insight into the nutrient sensitivity of mTORC1 in immature and mature beta cells, the next question was whether changing the environment of the SC-beta cells would change mTORC1 sensitivity to nutrients and its dynamics (FIG. 3A). SC-beta cells were collected from the final stage of the differentiation protocol and transplanted into mice for a period of two months, until reaching a stable functional state. […] All animal experiments were performed in accordance with Harvard University […] Animal Care and Use Committee regulations. Cell transplantations into immunodeficient SCID-Beige mice (Jackson Laboratory) were conducted as described previously with minor modifications. SC-beta cell clusters were resuspended in RPMI-1640 medium (Life Technologies; 11875-093), aliquoted into PCR tubes and kept on ice until loading into a catheter for cell delivery under the mouse kidney capsule. Mice were anesthetized with 0.5 ml/25 g 1.25% Avertin/body weight, and the left […] kidney site was shaved and disinfected with betadine and alcohol. A 1 cm incision was made to expose the kidney, followed by insertion of the catheter needle and injection of the cell clusters. […] Wound clips were removed 14 days post-surgery and mice were monitored twice a week. […]

Assay [4] concerns mTORC1. Put plainly: p-S6 immunostaining of pancreatic islets of fasted mice injected with nutrients. It is filed as in vivo, mouse. The conditions noted are these: overnight fasted mice, injection. The protocol: To assess this, mTORC1 activation was analyzed in the islets of fasted mice upon injection with glucose and/or leucine. […] Alpha cells activate the pathway in the presence of amino acids (likely supplied from autophagy) and the absence of glucose (e.g., during fasting), whereas beta cells activate mTORC1 merely following glucose consumption and insulin secretion during feeding (FIG. 1H).
To test the nutrient sensitivity of mTORC1 in beta cells in vivo, glucose was injected into neonates and their pancreata was dissected.
Tissue processing for tissue section staining was performed as previously described {Nir, 2007 #3232}, using the following antibodies: insulin (DakoCytomation), Ki67 (NeoMarkers RM9106S0), Pdx1 (gift from Christopher Wright, Vanderbilt University), Nkx6.1 (β-cell Biology Consortium), Chga (Novus NB120-15160) human p16 (Abcam ab108349 and BD Pharmingen 551153), p21 (Santa Cruz Biotechnology sc-397), Lamp2a (Abcam ab18528), pS6 (Cell Signaling 5364), E-cadherin (BD Pharmingen 610182), Atp5a (Abcam ab14748), Cox17 (Novus NBP1-19696) and Ndufb (Sigma-Aldrich HPA005640). Secondary antibodies were from Jackson ImmunoResearch Laboratories. […] To calculate cell size on tissue sections, the circumference of E-Cadherin-stained cells was determined using Image J Software. >100 cells from 6 mice were scored for each group. […]

For assay [5], the system named is mTORC1. Description: p-S6 FACS staining of beta cells in isolated mouse islets (mTORC1 activation). It is filed as cell-based. The protocol:
as §2
Cells were then resuspended in perm/wash with primary antibodies and incubated at 4° C. overnight. Primary antibodies, diluted 1:300 unless otherwise noted: Mouse anti-Nkx6.1, rat anti-insulin (pro-)IC-peptide, mouse anti-glucagon, rabbit anti-phospho-S6 Ribosomal Protein (Ser240/244). […] Cells were then washed 3 times in perm/wash solution and finally resuspended in 500-700 μl, filtered through a 40 μm nylon mash into flow cytometry tubes (BD Falcon; 352235), and analyzed using the LSR-II flow cytometer (BD Biosciences) with at least 30,000 events recorded. […]
For flow cytometry, mouse islets were dissociated into a single-cell suspension with trypsin/EDTA treatment for 5 minutes at 37° C., followed by treatment with a cell fixation and permeabilization solution (BD Pharmingen). Stained cells were analyzed on a MACSQuant Analyzer (DAKO). […]

“Also recorded” adds a separate entry of the source.

In the case of `CCC(=O)N1CCN(c2ccc(-n3c(=O)ccc4cnc5ccc(-c6cnc7ccccc7c6)cc5c43)cc2C(F)(F)F)CC1` [Torin1], the “effect on enhanced mTORC1 signaling (phosphorylation of p-S6) in nonresponsive SC-beta cells” value in the assay with mTORC1 [1] (glucose-nonresponsive SC-beta cells) is “repressed”. Also, the “effect on mTORC1 activity (p-S6) of SC-beta cells cultured in a high nutrient environment” value in the assay with mTORC1 [1] (rich RPMI media) is recorded as “repressed”. For the same compound, the “effect on mTORC1 activity (p-S6) in mature beta cells” value (shortened to “effect … (p-S6) in mature beta cells”) with mTORC1 [2] is reported as “inhibited”. In addition, the “GSIS of SC-beta cells grown in indicated conditions” value with SC-beta cells (low (2.8 mM) and high (16.7 mM) glucose for 1 h) is “increases their GSIS”. In the assay with SC-beta cells (nonresponsive SC-beta cells treated for 48 hours, low 2.8 mM, high 16.7 mM glucose), the “insulin secretion in dynamic GSIS assay” value is “induced insulin secretion in response to glucose”.

Take Exendin-4: the “effect … (p-S6) in mature beta cells” value with mTORC1 [2] is given as “increased”; in the assay on mTORC1 [2] (listed as exendin4) it was “strongly activate mTORC1 in beta cells”. Further, in the assay on mTORC1 [2] (in the presence of diazoxide, glucose and amino acids), the “effect on mTORC1 activity suppressed by diazoxide in beta cells” value is listed as “rescued”.

On to `CC(C)C[C@H](N)C(=O)O` [leucine], for which the “mTORC1 pathway activation (p-S6) in transplanted SC-beta cells” value with mTORC1 [3] was “remains inactive”. For the same compound, the “effect … (p-S6) in mature beta cells” value in the assay on mTORC1 [2] is reported as “amplifies the response to glucose in beta cells; also recorded: sufficient to fully activate the beta cell mTORC1 pathway in the presence of glucose”. Besides, the “mTORC1 activation (p-S6) in beta cells of adult mice” value in the assay on mTORC1 [4] was “not sufficient to activate the pathway”.

On to `CC1=NS(=O)(=O)c2cc(Cl)ccc2N1` [diazoxide], for which the “effect … (p-S6) in mature beta cells” value in the assay on mTORC1 [2] is “inhibits mTORC1 activation; also recorded: dramatically reduces mTORC1 activity in beta cells”. For the same compound, in the assay with mTORC1 [5] (RPMI with glucose and amino acids, 30 minute incubation), the “effect on mTORC1 activation (p-S6) in immature beta cells from mice of indicated age” value was “inhibits mTORC1 activation only at P5; also recorded: does not affect mTORC1 activation”.

insulin: the “effect … (p-S6) in mature beta cells” value in the assay on mTORC1 [2] was “not mimicked; also recorded: neither stimulation with insulin nor stimulation with insulin and amino acids was able to activate mTORC1 in beta cells”. Moreover, the “effect on mTORC1 activation (p-S6) in mouse beta cells” value in the assay on mTORC1 [5] (mouse islets, 30 minutes incubation in RPMI with indicated nutrients) is recorded as “do not affect mTORC1 activation in beta cells”.
